The source of these data is patent publication US20070155746A1, “NOVEL SUBSTITUTED PYRIDINYLOXY AND PYRIMIDINYLOXY AMIDES USEFUL AS INHIBITORS OF PROTEIN KINASES” (KALYPSYS, INC., priority 2005, published 2007).

Common to all, as to format: biochemical
For one assay, the target named is T1, VEGFR2 kinase (Homo sapiens, UniProt P35968).
T1 construct: purchased Invitrogen Inc PV3660
The experiment in a line: In vitro VEGFR2 kinase assay. The method, boiled down:
(§1)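 Human VEGFR2 (20 ng) or PDGFRβ (25 ng) was preincubated 10 min at about 22°C with compound, then reacted 2 h at 30°C with poly Glu:Tyr (4:1), ATP added at 60 μM. ADP formation was detected by ADP Quest coupled resorufin fluorescence (Ex 530/Em 580 nm). Efficacy is expressed as a percentage of Bay 43-9006 positive-control activity, with DMSO as negative control.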

The target in the next assay is T2, PDGFRβ kinase (Homo sapiens, UniProt P09619).
T2 construct: purchased Invitrogen Inc. P3082
The experiment in a line: In vitro PDGFRβ kinase assay. In a few lines: as §1

Assay [1] deals with T3, human B-Raf protein kinase (Homo sapiens, UniProt P15056).
T3 construct: GST (N); purchased Upstate Inc. 14-530 (B-Raf); 14-420 (Mek1)
The experiment in a line: In vitro B-Raf/Mek1 composite kinase assay. The method, boiled down:
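GST-tagged human B-Raf (Δ1-415), 1 ng, in MOPS pH 7.2 buffer with 10 mM MgCl2, preincubated 15 min with compound at room temperature; after 2 h, ATP depletion read by luminescence. Inhibition expressed as percentage of positive-control activity, DMSO as negative control.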

T2 sequence (P09619 33-1106): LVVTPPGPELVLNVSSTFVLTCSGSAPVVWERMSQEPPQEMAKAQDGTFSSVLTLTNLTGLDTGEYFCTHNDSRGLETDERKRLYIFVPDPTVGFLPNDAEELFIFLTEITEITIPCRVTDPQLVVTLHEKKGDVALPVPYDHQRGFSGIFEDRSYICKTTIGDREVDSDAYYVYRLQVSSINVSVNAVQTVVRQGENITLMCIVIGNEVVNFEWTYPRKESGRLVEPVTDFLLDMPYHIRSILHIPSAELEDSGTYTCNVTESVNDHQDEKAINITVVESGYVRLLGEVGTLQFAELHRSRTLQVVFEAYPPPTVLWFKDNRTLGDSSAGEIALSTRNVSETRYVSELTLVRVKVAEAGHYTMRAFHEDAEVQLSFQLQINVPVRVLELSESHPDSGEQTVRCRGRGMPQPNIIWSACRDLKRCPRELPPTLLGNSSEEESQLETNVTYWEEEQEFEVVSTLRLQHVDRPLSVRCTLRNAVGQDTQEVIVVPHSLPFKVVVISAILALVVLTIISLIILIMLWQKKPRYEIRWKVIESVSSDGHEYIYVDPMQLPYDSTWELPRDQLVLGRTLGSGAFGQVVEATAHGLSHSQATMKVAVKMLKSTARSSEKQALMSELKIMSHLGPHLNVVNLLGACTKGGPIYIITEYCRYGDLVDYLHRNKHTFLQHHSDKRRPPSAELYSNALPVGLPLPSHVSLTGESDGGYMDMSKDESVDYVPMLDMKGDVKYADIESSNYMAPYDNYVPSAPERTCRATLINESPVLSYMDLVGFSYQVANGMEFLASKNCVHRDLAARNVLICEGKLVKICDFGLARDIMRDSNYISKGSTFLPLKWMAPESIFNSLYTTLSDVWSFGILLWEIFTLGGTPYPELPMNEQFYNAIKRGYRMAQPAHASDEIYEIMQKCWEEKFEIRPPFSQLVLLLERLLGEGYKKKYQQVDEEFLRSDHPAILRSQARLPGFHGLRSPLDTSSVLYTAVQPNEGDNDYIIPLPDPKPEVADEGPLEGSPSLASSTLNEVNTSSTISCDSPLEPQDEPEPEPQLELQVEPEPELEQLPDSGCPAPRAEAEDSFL
T3 sequence (P15056 416-766): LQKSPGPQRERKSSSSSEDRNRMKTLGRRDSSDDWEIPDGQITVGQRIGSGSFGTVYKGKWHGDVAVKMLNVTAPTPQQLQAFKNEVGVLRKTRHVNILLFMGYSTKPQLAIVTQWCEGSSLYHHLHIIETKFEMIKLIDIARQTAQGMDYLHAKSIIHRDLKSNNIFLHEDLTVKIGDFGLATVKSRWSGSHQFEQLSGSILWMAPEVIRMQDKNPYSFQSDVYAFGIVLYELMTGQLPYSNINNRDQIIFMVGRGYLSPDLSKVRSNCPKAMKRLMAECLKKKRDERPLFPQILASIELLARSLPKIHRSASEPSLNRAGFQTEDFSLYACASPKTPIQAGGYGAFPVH
T1 sequence (P35968 20-1356): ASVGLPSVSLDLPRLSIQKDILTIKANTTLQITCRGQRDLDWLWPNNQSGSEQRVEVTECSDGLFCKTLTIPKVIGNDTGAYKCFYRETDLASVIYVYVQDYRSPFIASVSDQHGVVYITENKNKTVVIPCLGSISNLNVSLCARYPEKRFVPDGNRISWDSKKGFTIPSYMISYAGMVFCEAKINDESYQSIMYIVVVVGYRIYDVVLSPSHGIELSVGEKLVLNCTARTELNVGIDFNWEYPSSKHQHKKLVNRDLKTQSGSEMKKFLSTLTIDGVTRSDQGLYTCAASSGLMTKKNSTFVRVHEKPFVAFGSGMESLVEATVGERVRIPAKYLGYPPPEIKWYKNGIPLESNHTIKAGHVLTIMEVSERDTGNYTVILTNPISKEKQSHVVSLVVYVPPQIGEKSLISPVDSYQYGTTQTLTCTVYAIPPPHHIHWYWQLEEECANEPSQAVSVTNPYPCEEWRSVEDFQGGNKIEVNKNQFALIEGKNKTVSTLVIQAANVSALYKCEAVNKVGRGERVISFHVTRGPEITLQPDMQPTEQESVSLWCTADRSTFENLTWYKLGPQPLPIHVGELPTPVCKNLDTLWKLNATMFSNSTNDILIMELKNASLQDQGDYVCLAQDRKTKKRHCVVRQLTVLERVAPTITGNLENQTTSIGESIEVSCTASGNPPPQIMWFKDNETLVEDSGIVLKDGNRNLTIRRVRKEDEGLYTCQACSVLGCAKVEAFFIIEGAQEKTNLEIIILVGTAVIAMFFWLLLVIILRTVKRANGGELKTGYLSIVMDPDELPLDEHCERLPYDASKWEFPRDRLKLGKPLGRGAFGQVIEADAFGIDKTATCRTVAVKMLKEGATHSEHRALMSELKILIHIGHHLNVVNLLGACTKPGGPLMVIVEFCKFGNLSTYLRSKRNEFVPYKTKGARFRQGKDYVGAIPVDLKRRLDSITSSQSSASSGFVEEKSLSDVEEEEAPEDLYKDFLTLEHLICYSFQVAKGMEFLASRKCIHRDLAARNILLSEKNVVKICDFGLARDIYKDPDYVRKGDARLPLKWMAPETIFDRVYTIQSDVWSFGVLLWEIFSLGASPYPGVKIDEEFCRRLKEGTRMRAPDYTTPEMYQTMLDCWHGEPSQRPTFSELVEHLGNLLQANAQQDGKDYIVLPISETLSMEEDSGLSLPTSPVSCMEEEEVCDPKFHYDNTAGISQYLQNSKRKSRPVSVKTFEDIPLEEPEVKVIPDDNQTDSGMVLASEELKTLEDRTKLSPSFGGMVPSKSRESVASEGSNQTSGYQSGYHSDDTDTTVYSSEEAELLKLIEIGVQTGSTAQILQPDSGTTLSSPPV

Regarding `Cn1cc(-c2cc(Oc3ccc(NC(=O)c4ccc(Cl)c(C(F)(F)F)c4)cc3)ccn2)cn1` [Example 22, 4-Chloro-N-(4-(2-(1-methyl-1H-pyrazol-4-yl)pyridin-4-yloxy)phenyl)-3-(trifluoromethyl)benzamide], the IC50 (at VEGFR2 kinase; on PDGFRβ kinase; in assay [1]) was no more than 10 µM in each case.
With `Cn1cc(-c2cc(Oc3cccc(NC(=O)c4ccc5c(c4)OC(F)(F)O5)c3)ccn2)cn1` [Example 62, 2,2-Difluoro-N-(3-(2-(1-methyl-1H-pyrazol-4-yl)pyridin-4-yloxy)phenyl)benzo[d][1,3]dioxole-5-carboxamide], the IC50 (against VEGFR2 kinase; against PDGFRβ kinase; in assay [1]) was greater than 10 µM in each case.
Turning to `Cn1cc(-c2cc(Oc3cccc(NC(=O)c4ccccc4-n4ccnc4)c3)ccn2)cn1` [Example 36, 2-(1H-Imidazol-1-yl)-N-(3-(2-(1-methyl-1H-pyrazol-4-yl)pyridin-4-yloxy)phenyl) benzamide], the results for the IC50 (at VEGFR2 kinase; against PDGFRβ kinase; in assay [1]) were no more than 10 µM, no more than 10 µM and greater than 10 µM, respectively.
In the case of `CN(C)c1cccc(C(=O)Nc2cccc(Oc3ccnc(-c4cnn(C)c4)c3)c2)c1` [Example 28, 3-(Dimethylamino)-N-(3-(2-(1-methyl-1H-pyrazol-4-yl)pyridin-4-yloxy)phenyl)benzamide], the IC50 (against VEGFR2 kinase; against PDGFRβ kinase; in assay [1]) was greater than 10 µM in each case.
Take `CCOc1cc(OCC)cc(C(=O)Nc2cc(Oc3cc(-c4cnn(C)c4)ncn3)ccc2F)c1` [Example 17, 3,5-Diethoxy-N-(2-fluoro-5-(6-(1-methyl-1H-pyrazol-4-yl)pyrimidin-4-yloxy)phenyl)benzamide]: the IC50 (against VEGFR2 kinase; against PDGFRβ kinase; in assay [1]) was greater than 10 µM each time.
Turning to `CCOc1cc(C(=O)Nc2cccc(Oc3ccnc(C(=O)NC)c3)c2)cc(OCC)c1OCC` [Example 13, N-Methyl-4-(3-(3,4,5-triethoxybenzamido)phenoxy)picolinamide], the IC50 was no more than 10 µM on VEGFR2 kinase, no more than 10 µM against PDGFRβ kinase and greater than 10 µM in assay [1].
For the molecule `CCOc1cc(OCC)cc(C(=O)Nc2cccc(Oc3cc(-c4cnn(C)c4)ncn3)c2)c1` [Example 24, 3,5-Diethoxy-N-(3-(6-(1-methyl-1H-pyrazol-4-yl)pyrimidin-4-yloxy)phenyl)benzamide], the IC50 against VEGFR2 kinase is greater than 10 µM; against PDGFRβ kinase it was no more than 10 µM; in assay [1], greater than 10 µM.
